Assay results from ChEMBL document CHEMBL5209569, “Membrane potential based assay for SLC6A8 using HEK-293 JumpIN SLC6A8 OE cells” (2022).

Biological target: T1, Sodium- and chloride-dependent creatine transporter 1 (Homo sapiens, UniProt P48029)
T1 sequence (P48029 whole entry): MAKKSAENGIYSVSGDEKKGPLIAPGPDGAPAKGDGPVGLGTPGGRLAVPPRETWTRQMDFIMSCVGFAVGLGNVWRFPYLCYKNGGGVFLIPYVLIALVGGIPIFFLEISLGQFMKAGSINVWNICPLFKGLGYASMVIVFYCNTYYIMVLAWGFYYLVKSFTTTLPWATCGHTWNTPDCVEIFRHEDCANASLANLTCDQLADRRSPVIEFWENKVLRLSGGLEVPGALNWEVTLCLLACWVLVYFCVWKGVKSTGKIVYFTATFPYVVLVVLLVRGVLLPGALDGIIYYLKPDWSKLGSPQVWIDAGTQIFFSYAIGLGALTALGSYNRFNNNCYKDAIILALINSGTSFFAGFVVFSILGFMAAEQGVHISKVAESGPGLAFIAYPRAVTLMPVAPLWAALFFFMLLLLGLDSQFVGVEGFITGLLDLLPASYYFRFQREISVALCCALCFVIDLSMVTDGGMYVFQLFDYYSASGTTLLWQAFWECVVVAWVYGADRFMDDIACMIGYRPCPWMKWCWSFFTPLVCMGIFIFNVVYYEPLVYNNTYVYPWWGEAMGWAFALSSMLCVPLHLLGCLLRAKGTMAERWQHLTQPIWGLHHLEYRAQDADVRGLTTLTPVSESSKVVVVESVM
Test: Substrate uptake by the Sodium- and Chloride-Dependent Creatine Transporter 1 (CRTR, SLC6A8) as assessed by the fluorescent FLIPR membrane potential dye in HEK-293 JumpIN-SLC6A8 cells (PubChem AID: 1794823)
Format: functional, cell-based, HEK293

EC50: 5 µM
Compound: CN(CC(=O)O)C(=N)N [CREATINE]
